Residue numbers refer to the chain shown, from its start.
Columns and labels:
CPT II variant P50H [1] = target: T1, CPT II variant P50H (Homo sapiens, UniProt P23786, P50H); assay: Lipid binding assay (membrane lipid strips); settings: 0.4 mg enzyme, 100 pmol lipid spots
T1 construct: made in house; host or cells: Escherichia coli BL21Gold DE
T1 sequence (P23786 26-658 P50H): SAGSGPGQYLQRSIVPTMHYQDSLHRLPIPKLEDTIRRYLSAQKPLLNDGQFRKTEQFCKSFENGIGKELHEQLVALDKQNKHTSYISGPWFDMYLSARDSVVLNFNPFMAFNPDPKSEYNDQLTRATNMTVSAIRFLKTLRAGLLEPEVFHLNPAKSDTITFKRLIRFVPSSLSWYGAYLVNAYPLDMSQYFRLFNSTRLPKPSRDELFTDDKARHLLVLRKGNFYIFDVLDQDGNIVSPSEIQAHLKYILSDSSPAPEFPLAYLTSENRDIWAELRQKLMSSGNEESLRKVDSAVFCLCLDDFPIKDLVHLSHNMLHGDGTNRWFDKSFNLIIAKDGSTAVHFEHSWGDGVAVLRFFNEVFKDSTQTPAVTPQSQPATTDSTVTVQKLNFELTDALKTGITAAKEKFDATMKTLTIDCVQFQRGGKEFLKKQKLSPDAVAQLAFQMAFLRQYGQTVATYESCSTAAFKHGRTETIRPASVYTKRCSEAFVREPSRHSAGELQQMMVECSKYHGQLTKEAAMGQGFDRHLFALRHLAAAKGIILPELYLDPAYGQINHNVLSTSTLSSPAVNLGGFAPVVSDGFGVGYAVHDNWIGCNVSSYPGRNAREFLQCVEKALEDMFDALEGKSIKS
Method: (§1) Direct interaction of CPT II WT and variants with phospholipids of the mitochondrial membrane was assessed using membrane lipid strips (Echelon Biosciences, Salt Lake City, Utah, USA). The membrane was spotted with 100 pmol of various cell membrane lipids. The assay was performed following manufacturer’s instructions with some modifications explained in the following. At first, the membrane was washed twice in phosphate buffered saline (PBS). After 1 h incubation with blocking solution (3% BSA fatty acid-free in PBS) at room temperature, the membrane was incubated with purified CPT II WT or variant (final amount 0.4 mg protein) for 2 h at 4 °C. After three washing steps, a-His-Probe (H3) mouse monoclonal antibody (Santa Cruz Biotech, Santa Cruz, CA, USA, 1:1000 dilution in PBS containing 3% BSA) was added to the membrane over night at 4 °C. The membrane was washed three times with PBS and incubated with mouse IgG horseradish peroxidase-linked whole antibody (from sheep, Amersham, Little Chalfont, Buckinghamshire, UK) for 1 h at 4 °C. The interaction was visualized by ECL Western blotting detection reagents (Amersham, Little Chalfont, Buckinghamshire, UK).

CPT II variant S113L [2] = target: T2, CPT II variant S113L (Homo sapiens, UniProt P23786, S113L); assay: Lipid binding assay (membrane lipid strips); settings: 0.4 mg enzyme, 100 pmol lipid spots
T2 construct: made in house; host or cells: Escherichia coli BL21Gold DE
T2 sequence (P23786 26-658 S113L): T1 sequence (P23786 26-658 P50H) with H25P, S88L
Method: as §1

CPT II WT [3] = target: T3, CPT II WT (Homo sapiens, UniProt P23786); assay: nanoDSF protein stability in presence of CL or β-OG; format: binding
T3 construct: made in house; host or cells: Escherichia coli BL21Gold DE
T3 sequence (P23786 26-658): T1 sequence (P23786 26-658 P50H) with H25P
Method: (§2) NanoDSF is a standard method for the investigation of the folding/unfolding of proteins and the interaction of proteins with effectors/ligands/substrates
(§3) The protein stability was investigated applying nano differential scanning fluorimetry (nanoDSF) using a protein concentration of 1 mg/mL in assay buffer. […] The heating rate has been set to 1 °C per min. A heating ramp from 15 to 95 °C was determined. The nanoDSF data were obtained using a Prometheus NT.48 device. First derivatives were calculated using PR.ThermControl software (NanoTemper Technologies GmbH, Munich, Germany). Experiments were performed at least three times independently as double determination.

CPT II variant P50H [4] = target: T1, CPT II variant P50H; assay: as above; format: binding; settings: 1 mg/mL protein
Method: as §2, §3

CPT II variant S113L [5] = target: T2, CPT II variant S113L; assay: as above; format: binding
Method: as §2, §3

CPT II variant Y479F [6] = target: T4, CPT II variant Y479F (Homo sapiens, UniProt P23786, Y479F); assay: as above; format: binding
T4 construct: made in house; host or cells: Escherichia coli BL21Gold DE
T4 sequence (P23786 26-658 Y479F): T1 sequence (P23786 26-658 P50H) with H25P, Y454F
Method: as §2, §3

CPT II WT [7] = target: T3, CPT II WT; assay: Lipid binding assay (membrane lipid strips); settings: 0.4 mg enzyme, 100 pmol lipid spots
Method: as §1

CPT II variant Y479F [8] = target: T4, CPT II variant Y479F; assay: Lipid binding assay (membrane lipid strips); settings: 0.4 mg enzyme, 100 pmol lipid spots
Method: as §1

[9] = reference TM of WT in buffer (ΔTM = 0 °C)

Molecule	Signal for interaction on membrane lipid strips (CPT II variant P50H [1])	Signal for interaction on membrane lipid strips (CPT II variant S113L [2])	Signal for interaction on membrane lipid strips (CPT II WT [7])	Signal for interaction on membrane lipid strips (CPT II variant Y479F [8])	also measured
phosphatidylglycerol [PG]	lower detection signal	lower detection signal			
CCCCCCCCO[C@@H]1O[C@H](CO)[C@@H](O)[C@H](O)[C@H]1O [β-OG, n-octyl-β-d-glucopyranoside]					TM in Buffer with 1 % β-OG (CPT II WT [3]; 1 mg/mL protein): 49.9 ± 0.7 °C; ∆TM in Buffer with 1 % β-OG (CPT II WT [3]; [9]): 13.0 ± 0.7 °C; TM in Buffer with 1 % β-OG (CPT II variant P50H [4]): 43.5 ± 0.4 °C; TM in Buffer with 1 % β-OG (CPT II variant S113L [5]; 1 mg/mL protein): 45.3 ± 0.6 °C; ∆TM in Buffer with 1 % β-OG (CPT II variant S113L [5]; [9]): 8.4 ± 0.6 °C; TM in Buffer with 1 % β-OG (CPT II variant Y479F [6]; 1 mg/mL protein): 49.0 ± 0.5 °C; ∆TM in Buffer with 1 % β-OG (CPT II variant Y479F [6]; [9]): 12.1 ± 0.5 °C
phosphatidylinositol [PI]	No signal	interaction with PI was detected	interaction with PI was detected	interaction with PI was detected	
phosphatidylserine [PS]	reduced				

More lines, main results first:

Signal for interaction on membrane lipid strips (CPT II variant P50H [1])	Signal for interaction on membrane lipid strips (CPT II variant S113L [2])	Signal for interaction on membrane lipid strips (CPT II WT [7])	Signal for interaction on membrane lipid strips (CPT II variant Y479F [8])	Molecule	also measured
highest signal	highest signal	highest signal	highest signal	phosphatidylinositol (3,4,5)-trisphosphate [PtdIns(3,4,5)P3]	
highest signal	highest signal	highest signal	highest signal	phosphatidylinositol (4,5)-bisphosphate [PtdIns(4,5)P2]	

Reference: publication PMC8125234, “Cardiolipin Stabilizes and Increases Catalytic Efficiency of Carnitine Palmitoyltransferase II and Its Variants S113L, P50H, and Y479F” (International Journal of Molecular Sciences, 2021)
